Measurements from the supplement of paper PMC9938120.

Key:
Test in all cases: drug sensitivity score (DSS3, normalised partial AUC of % inhibition dose-response) (DSS (score)); higher = more sensitive (stronger inhibition of viability); extreme values may be limits of the assay
FMOC25_2 = patient-derived low-grade serous ovarian cancer cells; conditions: 72 h; library: FO5A; assay format: 2D, 384-well, CellTiter-Glo
Outline: (§1)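 The drug sensitivity score is calculated as a partial area under the percent-inhibition dose-response curve, divided by the log of the upper asymptote; higher scores mean more sensitive. For this score, early-passage (under 10) patient-derived ovarian cancer cells were exposed on 384-well flat clear-bottom plates to compounds at five concentrations across a 10,000-fold range for 72 h at 37 °C, 5% CO2. Viability was read with CellTiter-Glo and processed in Breeze.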

FMOC02_2 = patient-derived low-grade serous ovarian cancer cells; conditions: 72 h; library: FO5A; assay format: 2D, 384-well, CellTiter-Glo
Outline: as §1

FMOC25_1 = patient-derived low-grade serous ovarian cancer cells; conditions: 72 h; library: FO4B; assay format: 2D, 384-well, CellTiter-Glo
Outline: as §1

FMOC14 = patient-derived high-grade serous ovarian cancer cells; conditions: 72 h; library: FO5A; assay format: 2D, 384-well, CellTiter-Glo
Outline: as §1

FMOC03 = patient-derived mucinous ovarian cancer cells; conditions: 72 h; library: FO5A; assay format: 2D, 384-well, CellTiter-Glo
Outline: as §1

FMOC22 = patient-derived mucinous ovarian cancer cells; conditions: 72 h; library: FO5A; assay format: 2D, 384-well, CellTiter-Glo
Outline: as §1

FMOC02_3 = patient-derived low-grade serous ovarian cancer cells; conditions: 72 h; library: FO5A; assay format: 2D, 384-well, CellTiter-Glo
Outline: as §1

FMOC24 = patient-derived high-grade serous ovarian cancer cells; conditions: 72 h; library: FO5A; assay format: 2D, 384-well, CellTiter-Glo
Outline: as §1

FMOC06 = patient-derived mucinous ovarian cancer cells; conditions: 72 h; library: FO5A; assay format: 2D, 384-well, CellTiter-Glo
Outline: as §1

FMOC09 = patient-derived high-grade serous ovarian cancer cells; conditions: 72 h; library: FO5A; assay format: 2D, 384-well, CellTiter-Glo
Outline: as §1

Row | SMILES | drug sensitivity score (FMOC25_2) | drug sensitivity score (FMOC02_2) | drug sensitivity score (FMOC25_1) | drug sensitivity score (FMOC14) | drug sensitivity score (FMOC03) | drug sensitivity score (FMOC22) | drug sensitivity score (FMOC02_3) | drug sensitivity score (FMOC24) | drug sensitivity score (FMOC06) | drug sensitivity score (FMOC09)
1 | CCC1=C[C@@H]2CN(C1)Cc1c([nH]c3ccccc13)[C@@](C(=O)OC)(c1cc3c(cc1OC)N(C)[C@H]1[C@@](O)(C(=O)OC)[C@H](OC(C)=O)[C@]4(CC)C=CCN5CC[C@]31[C@@H]54)C2 [Vinorelbine] | 17.8 | 14.8 | 17.7 | 2.4 | 17.9 | 16.3 | 23.1 | 6.6 | 17.1 | 17.9
2 | O=C(O)C1(C(=O)O)CCC1.[NH2-].[NH2-].[Pt+2] [Carboplatin] | 2.8 | 4.9 | 1.3 | 4.9 | 0.6 | 2.8 | 5 | 8.3 | 1.3 | 9.1
3 | CC(C)[C@@H](CS(=O)(=O)C(C)C)N1C(=O)[C@@](C)(CC(=O)O)C[C@H](c2cccc(Cl)c2)[C@H]1c1ccc(Cl)cc1 [AMG-232] | 13.1 | 14.9 | 5.6 | 0 | 0 | 0.8 | 26 | 0 | 0 | 0
4 | CNC(=O)c1ccccc1Nc1cc(Nc2ccc(N3CCOCC3)cc2OC)ncc1C(F)(F)F [VS-4718] | 12.6 | 12 | 6.1 | 0.7 | 4.2 | 6 | 13.8 | 3.2 | 9.6 | 11.5
5 | CC[C@H](CC#N)OC(=O)N[C@@H](C)c1cccc(NC(=O)Nc2ccc(-c3cnco3)c(OC)c2)c1 [AVN944] | 10.3 | 9.8 | 9.7 | 11 | 13.4 | 14.2 | 12.6 | 6.45 | 13.4 | 11.2
6 | COc1cc(NS(C)(=O)=O)ccc1Nc1c2ccccc2nc2ccccc12 [Amsacrine] | 7.1 | 5.2 | 8.2 | 2.2 | 6 | 8.3 | 7 | 8.05 | 4.5 | 4.7
7 | Cn1ncc(Cl)c1-c1cc(C(=O)N[C@H](CN)Cc2ccc(F)c(F)c2)oc1Cl [Uprosertib] | 4.1 | 13.1 | 3.5 | 3.5 | 0 | 0.7 | 13.7 | 1.35 | 4.3 | 0
8 | CC(=O)OC[C@H]1O[C@@H]([S-])[C@H](OC(C)=O)[C@@H](OC(C)=O)[C@@H]1OC(C)=O.CCP(CC)CC.[Au+] [Auranofin] | 3.8 | 0 | 0 | 5.2 | 1.3 | 3.1 | 1.8 | 1.1 | 4.1 | 3.5
9 | CCc1cncnc1N1CCN(Cc2nc3ccc(C(F)(F)F)cc3[nH]2)CC1 | 6.2 | 3.9 | 1.3 | 1.3 | 0.8 | 1.3 | 5.3 | 5.2 | 0.5 | 0.1
10 | COc1cc(Nc2c(C#N)cnc3cc(OCCCN4CCN(C)CC4)c(OC)cc23)c(Cl)cc1Cl [Bosutinib] | 13.2 | 14.6 | 3.7 | 6.6 | 9.3 | 6.4 | 14.1 | 7.55 | 5.2 | 9.2
11 | N#CCNC(=O)c1ccc(-c2ccnc(Nc3ccc(N4CCOCC4)cc3)n2)cc1 [Momelotinib] | 9.3 | 6 | 5.4 | 1.7 | 2.4 | 3.2 | 9.9 | 5.95 | 2.7 | 1.2
12 | CN1CCC(CNc2ccc3ncc(-c4cccc(OC(F)(F)F)c4)n3n2)CC1 [SGI-1776] | 7.4 | 9.2 | 7.4 | 5 | 6.1 | 5.9 | 8.8 | 8.05 | 6.5 | 4.5
13 | C[C@@H]1COC(Nc2ccc3ncnc(Nc4ccc(OCc5nccs5)c(Cl)c4)c3c2)=N1 [Varlitinib] | 5.1 | 12.5 | 8.3 | 0.5 | 9 | 0.1 | 6.3 | 0.5 | 0.3 | 6.5
14 | Cc1cc(Nc2cc(N3CCN(C)CC3)nc(Sc3ccc(NC(=O)C4CC4)cc3)n2)n[nH]1 [Tozasertib] | 3.6 | 5 | 2.6 | 0.6 | 2.2 | 2.9 | 5.7 | 0.65 | 3.5 | 4.7
15 | Cc1c2oc3c(C)ccc(C(=O)N[C@@H]4C(=O)N[C@H](C(C)C)C(=O)N5CCC[C@H]5C(=O)N(C)CC(=O)N(C)[C@@H](C(C)C)C(=O)O[C@@H]4C)c3nc-2c(C(=O)N[C@@H]2C(=O)N[C@H](C(C)C)C(=O)N3CCC[C@H]3C(=O)N(C)CC(=O)N(C)[C@@H](C(C)C)C(=O)O[C@@H]2C)c(N)c1=O [Dactinomycin] | 28.8 | 22.1 | 23.3 | 21.7 | 21.7 | 21.5 | 27.2 | 23.2 | 22.9 | 16.7
16 | Cn1cc(CNCC2CCN(c3ncc(C(=O)NO)cn3)CC2)c2ccccc21 [Quisinostat] | 11.2 | 10.9 | 9.9 | 10.7 | 10.3 | 8.1 | 10.8 | 13.6 | 9.4 | 4.8
17 | COc1cc2ncnc(Nc3ccc(F)c(Cl)c3)c2cc1NC(=O)/C=C/CN1CCCCC1 [Dacomitinib] | 18.6 | 20.4 | 7.8 | 4.6 | 18.2 | 1.7 | 18 | 0.3 | 5.5 | 16.1

Row | SMILES | drug sensitivity score (FMOC25_2) | drug sensitivity score (FMOC02_2) | drug sensitivity score (FMOC25_1) | drug sensitivity score (FMOC14) | drug sensitivity score (FMOC03) | drug sensitivity score (FMOC22) | drug sensitivity score (FMOC02_3) | drug sensitivity score (FMOC24) | drug sensitivity score (FMOC06) | drug sensitivity score (FMOC09)
18 | COc1ccc(-c2ccc3ncc4c(c3c2)n(-c2ccc(N3CCNCC3)c(C(F)(F)F)c2)c(=O)n4C)cn1 [NVP-BGT226] | 26.7 | 24.7 | 27.5 | 14.9 | 17.4 | 14.4 | 27 | 10.7 | 15.2 | 11.9
19 | Cc1nc(Nc2ncc(C(=O)Nc3c(C)cccc3Cl)s2)cc(N2CCN(CCO)CC2)n1 [Dasatinib] | 7.7 | 19.9 | 2.8 | 5.1 | 8.4 | 0 | 20.4 | 4.5 | 5 | 17.1
20 | CNC(=O)c1ccccc1Nc1nc(Nc2ccc3c(c2OC)CCC[C@H](N2CCN(CCO)CC2)C3)ncc1Cl | 10.3 | 11.1 | 9 | 6 | 7.2 | 7.1 | 11.7 | 5.95 | 10.3 | 8.3
21 | COc1ccc(S(=O)(=O)Nc2cccnc2Nc2ccc(O)cc2)cc1 [ABT-751] | 6.8 | 9.4 | 5 | 1.3 | 7.4 | 6.8 | 9.5 | 1.8 | 7 | 7.3
22 | CCOC(=O)CCNc1cc(N2CCc3ccccc3CC2)nc(-c2ccccn2)n1 [GSK-J4] | 7.5 | 0 | 6.7 | 1.3 | 3.2 | 4.3 | 3.2 | 3.9 | 4 | 0
23 | Nc1nc2[nH]cc(CCc3ccc(C(=O)N[C@@H](CCC(=O)O)C(=O)O)cc3)c2c(=O)[nH]1 [Pemetrexed] | 3.3 | 0 | 0 | 0 | 2.2 | 3.4 | 0 | 1.55 | 0.3 | 0
24 | CN(C)Cc1ccc(S(=O)(=O)n2ccc(/C=C/C(=O)NO)c2)cc1 [Resminostat] | 7.7 | 9.7 | 3.4 | 8.2 | 8.1 | 6.8 | 7.4 | 6.3 | 6.8 | 3.3
25 | CCN(CC)Cc1ccc2cc(COC(=O)Nc3ccc(C(=O)NO)cc3)ccc2c1 [Givinostat] | 4 | 7.1 | 5.2 | 4.4 | 6.1 | 4.7 | 5.9 | 5.45 | 5.2 | 1.5
26 | C=CC(=O)Nc1cccc(Nc2nc(Nc3ccc(N4CCN(C(C)=O)CC4)cc3OC)ncc2C(F)(F)F)c1 [Rociletinib] | 9.4 | 12.4 | 9.2 | 5.2 | 8.7 | 5.2 | 11.7 | 2.45 | 6.7 | 8.4
27 | CN1CCN(CCOc2cc(OC3CCOCC3)c3c(Nc4c(Cl)ccc5c4OCO5)ncnc3c2)CC1 [Saracatinib] | 10 | 15.6 | 5.3 | 5 | 9.4 | 0.6 | 16.7 | 4.7 | 4.6 | 11
28 | CC[C@]1(O)C[C@@H]2CN(CCc3c([nH]c4ccccc34)[C@@](C(=O)OC)(c3cc4c(cc3OC)N(C)[C@H]3[C@@](O)(C(=O)OC)[C@H](OC(C)=O)[C@]5(CC)C=CCN6CC[C@]43[C@@H]65)C2)C1 [Vinblastine] | 15.9 | 3.7 | 10.9 | 0 | 7.5 | 6.8 | 17.2 | 0.45 | 2.4 | 8.3
29 | Cc1nn(C)c(COc2ccc(N3CCN(S(=O)(=O)N(C)C)CC3)cc2)c1-c1cccc2c(CCCOc3cccc4ccccc34)c(C(=O)O)n(CCN3CCOCC3)c12 | 4.7 | 6 | 5.6 | 7.6 | 5.9 | 8.2 | 7.5 | 6.7 | 7 | 5.9
30 | C=CC(=O)Nc1cc(Nc2nccc(-c3cn(C)c4ccccc34)n2)c(OC)cc1N(C)CCN(C)C [Osimertinib] | 11.2 | 15 | 7.3 | 6.1 | 11.7 | 3.3 | 12 | 4.35 | 4 | 11.3
31 | CN(C)c1cc2c(cc1Sc1nc3c(N)nccc3n1CCNCC(C)(C)C)OCO2 [CUDC-305] | 15.2 | 12.9 | 12.2 | 9.3 | 16.1 | 8.9 | 13.9 | 8.05 | 9.8 | 9.7
32 | CN(Cc1cnc2nc(N)nc(N)c2n1)c1ccc(C(=O)N[C@@H](CCC(=O)O)C(=O)O)cc1 [Methotrexate] | 0.2 | 0 | 0 | 0 | 0 | 0 | 0 | 0 | 0 | 0
33 | Cc1cc(-c2nc(-c3ccc(OC(F)(F)F)cc3)no2)nn1Cc1ccnc(N2CCN(C3CC3)CC2)c1 [BAY 87-2243] | 5.3 | 0 | 2.2 | 3.1 | 6.4 | 6 | 0 | 0 | 0 | 0
